Biological target: T1, FLAG-tagged SNAP-Tag protein (SNAP-FLAG) (Homo sapiens, UniProt P16455, A127T/A154D/C150Q/C62A/E30R/G131K/G132T/G153L/K125A/K32I/L33F/M134L/N157G/Q115S/Q116H/R128A/R135S/S151G/S152D/S159E)
T1 construct: expressed in transfected cells
T1 sequence (P16455 1-182 E30R/K32I/L33F/C62A/Q115S/Q116H/K125A/A127T/R128A/G131K/G132T/M134L/R135S/C150Q/S151G/S152D/G153L/A154D/N157G/S159E limits assumed): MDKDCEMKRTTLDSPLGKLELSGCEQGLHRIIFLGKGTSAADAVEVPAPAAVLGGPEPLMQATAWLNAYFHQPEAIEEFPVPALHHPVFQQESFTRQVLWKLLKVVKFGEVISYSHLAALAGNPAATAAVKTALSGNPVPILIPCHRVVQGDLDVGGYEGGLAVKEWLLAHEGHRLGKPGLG
Test: PP1 dose response: covalent labeling of SNAP-FLAG in live cells (Western blot)
Type: cell-based
Conditions: HEK293T cells stably expressing SNAP-FLAG, increasing doses for two hours, not irradiated
Method: PP1 close response and viability assay: Dose response—Each well of a 6-well plate was seeded with 300,000 HEK293T cells stably expressing either SNAP-FLAG or KEAP-SNAP. After reaching ˜90% confluency the growth media was removed, cells washed with DPBS, and treated with varying concentrations (0, 0.5, 1, 5, 15, 45 μM) of photoproximity probe PP1 in 500 μL serum-free DMEM for 2 hours at 37° C. Post treatment, media was aspirated and non-reacted probe washed out with 3 mL full DMEM over 40 minutes, changing the media twice. Cells were harvested, washed, and lysed in DPBS containing protease inhibitor using a tip sonicator. Lysate was normalized to 1 mg/mL then diluted with loading buffer and run on SDS-PAGE gel that was transferred by western blot to nitrocellulose. The nitrocellulose membrane was stained for biotin and Flag-Tag using streptavidin IR dye (Li-cor #926-32230; Li-cor Biosciences, Lincoln, Nebr., United States of America) and anti-Flag (Sigma #F3165, Sigma-Aldrich, St. Louis, Mo., United States of America; Li-cor #926-68072, Li-cor Biosciences, Lincoln, Nebr., United States of America). Fluorescence images were collected using an Odyssey infrared imager (Li-cor Biosciences, Lincoln, Nebr., United States of America). […]

- EC50: 4.5 µM
Compound: COc1cc(C(C)OC(=O)NC(CCCCNC(=O)CCC2(C)N=N2)C(=O)NCCCCCNC(=O)CCCCC2SCC3NC(=O)NC32)c([N+](=O)[O-])cc1OCCCC(=O)NCc1ccc(COc2nc(N)nc3[nH]cnc23)cc1 (stereo not shown) [PP1]
